In US8703758B2, “Bicyclic compound” (Takeda Pharmaceutical Company Limited, priority 2010, dated 2014):

What was measured:
human ACC2 = target: T1, human ACC2 (Homo sapiens, UniProt O00763); test: Measurement of ACC2 inhibitory activity (malachite green, recombinant ACC2 (Nd)); format: biochemical; details: read-out: ACC2 inhibitory rate (%)
T1 construct: His6 (from vector pFAST-BacHTa); made in house; host or cells: SF-9 insect cells, recombinant baculovirus BAC-ACC2 (Nd)
Procedure: The ACC2 inhibitory action of the compound of the present invention was evaluated by the following method.
(1) Cloning of Human ACC2 Gene and Preparation of Recombinant Baculovirus
Human ACC2 gene was cloned by PCR using a human skeletal muscle cDNA library (Clontech) as a template and Primer 1 and Primer 2 shown below. Primer 1 and Primer 2 were prepared by adding SalI, XbaI restriction enzyme recognition sequences based on the information of the base sequence of human ACC2 gene (Genbank Accession U89344).
(§1) PCR was performed using Pyrobest DNA polymerase (TAKARA BIO INC.). The obtained PCR product was cloned to pT7 Blue vector (Novagen) and after confirmation of the base sequence, digested with restriction enzymes SalI and XbaI. The obtained DNA fragment was inserted into pFAST-BacHTa (Invitrogen) digested with restriction enzymes SalI and XbaI to give expression plasmid ACC2/pFAST-BacHTa.
A plasmid for expression of ACC2 without a mitochondrial targeting sequence was prepared by PCR using the expression plasmid as a template, and Primer 3 (SalI restriction enzyme recognition sequence was added) and Primer 4 prepared by reference to the information of human ACC2 gene base sequence (Genbank Accession U89344).
as §1, with “Pyrobest-DNA” for “Pyrobest DNA”, “AflII.” for “XbaI.”, “ACC2/pFAST-BacHTa” for “pFAST-BacHTa (Invitrogen)”, “AflII” for “XbaI”, “ACC2mito7/pFAST-BacHTa.” for “ACC2/pFAST-BacHTa.”
Using the expression plasmid ACC2mito7/pFAST-BacHTa and BAC-TO-BAC Baculovirus Expression System (Invitrogen), virus stock BAC-ACC2 of recombinant Baculovirus (N terminal deleted (hereinafter Nd)) was prepared.
(2) Preparation of ACC2 (Nd) Protein
SF-9 cells (Invitrogen) were inoculated to a medium (2 L) for insect cells (Sf-900IISFM medium (Invitrogen) containing 10% fetal bovine serum (Trace), 50 mg/L Gentamicin (Invitrogen), 0.1% Pluronic F-68 (Invitrogen)) at 0.5×10^6 cells/mL, and cultured with shaking in Wave Bioreactor (Wave) at 27° C., 20 rpm, rocking angle 6°, oxygen concentration 30%.
On day 4 of the culture, 3 L of the medium for insect cells was added, the rocking angle was set to 8°, and the cells were further cultured. On day 5 of the culture, 100 mL of recombinant Baculovirus BAC-ACC2 (Nd) was added, 5 L of the medium for insect cells was further added, the rocking angle was set to 11°, and the cells were cultured for 3 days. The culture medium was centrifuged at 1000×g for 10 min to give virus-infected cells. The cells were washed with phosphate buffered saline (Invitrogen) and centrifuged under the same conditions. The obtained cells were cryopreserved at −80° C.
The cryopreserved cells were thawed in ice and suspended in 900 mL of 25 mM HEPES buffer (pH 7.5) containing 10% Glycerol, 0.13 M NaCl, 1 mM EDTA, 25 mM Sodium β-Glycerophosphate and 1 mM Sodium Orthovanadate, and supplemented with Complete Protease Inhibitor (Nippon Boehringer Ingelheim Co., Ltd.). The obtained suspension was homogenized three times in a polytron homogenizer (Kinematica) at 20,000 rpm for 30 sec. The obtained cell disruption solution was clarified by centrifugation at 31000×g for 60 min, and filtered through a 0.45 μm filter. The filtrate was passed through a column packed with 60 mL of Ni-NTA Super Flow Gel (QUIAGEN) at a flow rate of about 5 mL/min. The column was washed with buffer A (50 mM HEPES (pH 7.5) containing 0.3 M NaCl), further washed with buffer A containing 20 mM Imidazole, and eluted with buffer A containing 100 mM Imidazole. The eluate was concentrated with Vivaspin 20 (Vivascience) with a molecular weight cut off of 30K. The obtained concentrate was dialyzed against 50 mM HEPES (pH 7.5) containing 10 mM MgCl2, 2 mM Dithiothreitol, 10 mM Tripotassium Citrate and 0.3 M NaCl. The inner dialysate was filtered through a 0.22 μm filter to give ACC2 (Nd). […]

[1] = Body weight after 4 weeks of oral administration in rats on Western diet (anti-obesity action); format: in vivo, rat; details: male F344/Jcl rats; for body weight after administration for 4 weeks: Western diet, Mean ± S.D., N = 6
Procedure: 6-week-old male F344/Jcl rats (CLEA Japan, Inc., Tokyo) were individually reared immediately after purchase and Western diet (D12079B, Research diet) was given. From the next day, an acclimation dosing (0.5% Methyl Cellulose, 5 mL/kg, oral administration) was started (once between 8:00 AM and 11:00 AM) and body weight and food consumption amount were appropriately measured. The rats with body weight and consumption amount extremely out of the average values in the acclimation dosing period were excluded. At the stage of 7-week-old, the body weight, food consumption amount, and body fat by Echo-MRI were measured, and the rats were grouped (6 per group) based on these measurement results. During 4 weeks of the test period, body weight was measured between 8:00 AM and 11:00 AM, and a solvent (0.5% Methyl Cellulose) or a test compound (0.5% Methyl Cellulose suspension) was consecutively administered by gavage at 5 mL/kg.
4 Weeks later, the body weight was measured in the morning. All values show mean±standard deviation and Williams' test and t-test were used for statistical analysis.

[2] = Respiratory quotient (RQ) measurement in rats on Western diet; format: in vivo, rat; details: 20 mg/kg by gavage, male F344/Jcl rats, Mean ± S.D., N = 5
Procedure: 5-week-old male F344/Jcl rats (CLEA Japan, Inc., Tokyo) were acclimated to the rearing environment for 1 week after purchase and the diet was changed to Western diet (D12079B, Research diet). They were used for the experiment of Respiratory quotient (RQ) measurement at 8-week-old. For the RQ measurement experiment, the body weight was measured in the late afternoon (15:30-16:30) of the previous day and the morning (8:00-9:00) of the day, and the rats with high or low body weight increase were excluded. To the animals were administered by gavage 15 mL/kg of a liquid diet (F2LCW, Oriental Yeast Co., Ltd) prepared to a concentration of 4.95 g/15 mL (1.436 kcal/mL), and they were placed in an indirect calorimeter (Oxymax) chamber manufactured by Columbus Instruments, and RQ was recorded every 10 min. RQ values were confirmed about 1 hr after the start of the measurement and the animals were grouped (5 per group) such that a difference between groups would be small. For medication, a solvent (0.5% Methyl Cellulose, Wako Pure Chemical Industries, Ltd.) or a test compound (0.5% Methyl Cellulose suspension) was administered by gavage at 5 mL/kg. RQ was measured at 10 minute intervals from 0 to 3 hours after administration, and the average thereof was calculated. All values are shown in mean±standard deviation and statistical analysis was performed by the Dunnett-test.

T1 sequence (O00763 117-2458 limits assumed): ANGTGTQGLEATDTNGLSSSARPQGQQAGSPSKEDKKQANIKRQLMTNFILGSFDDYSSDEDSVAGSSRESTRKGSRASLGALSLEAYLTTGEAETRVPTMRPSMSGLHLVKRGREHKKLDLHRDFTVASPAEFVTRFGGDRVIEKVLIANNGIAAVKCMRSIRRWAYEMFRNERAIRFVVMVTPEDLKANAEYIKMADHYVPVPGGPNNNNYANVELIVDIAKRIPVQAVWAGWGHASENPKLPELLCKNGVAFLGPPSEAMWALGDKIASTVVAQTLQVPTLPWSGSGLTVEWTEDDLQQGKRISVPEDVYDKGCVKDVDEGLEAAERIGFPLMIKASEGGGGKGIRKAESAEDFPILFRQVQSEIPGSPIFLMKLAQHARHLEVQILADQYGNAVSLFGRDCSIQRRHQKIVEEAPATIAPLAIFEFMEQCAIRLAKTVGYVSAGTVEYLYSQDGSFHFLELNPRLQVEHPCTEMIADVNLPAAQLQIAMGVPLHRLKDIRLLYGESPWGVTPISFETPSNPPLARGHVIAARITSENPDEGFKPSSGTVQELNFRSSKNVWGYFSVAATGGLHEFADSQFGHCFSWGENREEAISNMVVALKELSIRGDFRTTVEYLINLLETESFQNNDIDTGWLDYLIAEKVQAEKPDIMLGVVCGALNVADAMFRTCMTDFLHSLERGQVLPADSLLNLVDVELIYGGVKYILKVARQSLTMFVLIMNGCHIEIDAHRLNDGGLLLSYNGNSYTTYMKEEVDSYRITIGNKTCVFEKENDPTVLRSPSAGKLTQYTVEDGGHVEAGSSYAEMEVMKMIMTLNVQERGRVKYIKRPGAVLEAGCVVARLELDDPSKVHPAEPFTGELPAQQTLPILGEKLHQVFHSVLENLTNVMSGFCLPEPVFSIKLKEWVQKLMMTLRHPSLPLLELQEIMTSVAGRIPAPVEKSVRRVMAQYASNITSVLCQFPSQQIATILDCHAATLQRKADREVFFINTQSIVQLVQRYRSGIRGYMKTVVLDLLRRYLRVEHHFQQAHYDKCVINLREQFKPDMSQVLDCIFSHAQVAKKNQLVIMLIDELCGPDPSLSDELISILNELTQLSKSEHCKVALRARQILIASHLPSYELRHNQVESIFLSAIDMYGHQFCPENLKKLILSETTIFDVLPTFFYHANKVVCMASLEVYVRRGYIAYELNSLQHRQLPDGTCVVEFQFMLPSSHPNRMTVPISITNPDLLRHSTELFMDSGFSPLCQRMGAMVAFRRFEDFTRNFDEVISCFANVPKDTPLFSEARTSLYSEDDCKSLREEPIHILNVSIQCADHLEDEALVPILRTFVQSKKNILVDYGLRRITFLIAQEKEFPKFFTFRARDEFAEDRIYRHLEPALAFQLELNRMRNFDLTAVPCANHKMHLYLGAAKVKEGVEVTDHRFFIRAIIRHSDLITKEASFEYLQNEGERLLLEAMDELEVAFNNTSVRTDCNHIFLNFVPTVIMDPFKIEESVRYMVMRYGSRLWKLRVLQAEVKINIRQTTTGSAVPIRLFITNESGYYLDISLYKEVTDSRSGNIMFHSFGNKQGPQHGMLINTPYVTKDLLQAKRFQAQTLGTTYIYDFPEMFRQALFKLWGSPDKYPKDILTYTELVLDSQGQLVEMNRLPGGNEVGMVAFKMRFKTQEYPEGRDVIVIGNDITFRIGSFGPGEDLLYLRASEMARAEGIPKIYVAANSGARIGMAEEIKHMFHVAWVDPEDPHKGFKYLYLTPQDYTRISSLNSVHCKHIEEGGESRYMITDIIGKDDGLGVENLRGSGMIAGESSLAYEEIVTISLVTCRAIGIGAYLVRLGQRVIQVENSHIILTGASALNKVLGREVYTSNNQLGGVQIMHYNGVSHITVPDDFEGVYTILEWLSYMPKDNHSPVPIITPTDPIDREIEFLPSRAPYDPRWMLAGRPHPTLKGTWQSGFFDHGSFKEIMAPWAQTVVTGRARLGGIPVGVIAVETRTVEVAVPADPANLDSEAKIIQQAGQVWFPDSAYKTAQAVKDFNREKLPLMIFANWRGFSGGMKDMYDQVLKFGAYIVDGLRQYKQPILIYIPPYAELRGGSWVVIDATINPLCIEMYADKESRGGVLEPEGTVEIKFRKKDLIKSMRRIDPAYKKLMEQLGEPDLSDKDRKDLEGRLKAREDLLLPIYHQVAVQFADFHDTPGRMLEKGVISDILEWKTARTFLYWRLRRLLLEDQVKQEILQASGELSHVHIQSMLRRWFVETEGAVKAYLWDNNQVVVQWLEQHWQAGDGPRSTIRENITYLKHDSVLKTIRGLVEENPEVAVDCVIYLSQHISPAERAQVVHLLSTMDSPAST

Row | SMILES | inhibition at 10 µM (human ACC2) | melting point | other results
1 | CC(=O)N[C@@H](C)COC1CCN(c2nc3cc(OCC4CC4)ccc3s2)CC1 [Example 3, N-[(1S)-2-({1-[5-(cyclopropylmethoxy)-1,3-benzothiazol-2-yl]piperidin-4-yl}oxy)-1-methylethyl]acetamide] | 104% | – | –
2 | CC(=O)NC(C)CC[C@H]1CC[C@H](n2cc3ccc(OCC4CC4)cc3n2)CC1 (stereo partly drawn) [Example 41, N-(3-{trans-4-[6-(cyclopropylmethoxy)-2H-indazol-2-yl]cyclohexyl}-1-methylpropyl)acetamide] | – | 139 to 140 °C | –
3 | CC(=O)NC(C)CO[C@H]1CC[C@H](c2nc3ccc(OCC4CC4)cc3o2)CC1 (stereo partly drawn) [Example 39, N-[2-({trans-4-[6-(cyclopropylmethoxy)-1,3-benzoxazol-2-yl]cyclohexyl}oxy)-1-methylethyl]acetamide] | – | 131 to 132 °C | –
4 | Cc1conc1NC(C)COC1CCN(c2nc3ccc(OCC4CC4)cc3o2)CC1 (stereo not drawn) [Example 7, N-[2-({1-[6-(cyclopropylmethoxy)-1,3-benzoxazol-2-yl]piperidin-4-yl}oxy)-1-methylethyl]-4-methylisoxazol-3-amine] | 100% | – | –
5 | CC(COC1CCN(c2nc3ccc(OCC4CC4)cc3o2)CC1)Nc1ccon1 (stereo not drawn) [Example 4, N-[2-({1-[6-(cyclopropylmethoxy)-1,3-benzoxazol-2-yl]piperidin-4-yl}oxy)-1-methylethyl]isoxazol-3-amine] | 100% | – | –
6 | CC(=O)N[C@@H](C)COC1CCN(c2nc3cc(OCC4CC4)ccc3o2)CC1 [Example 2, N-[(1S)-2-({1-[5-(cyclopropylmethoxy)-1,3-benzoxazol-2-yl]piperidin-4-yl}oxy)-1-methylethyl]acetamide] | 100% | 99 to 100 °C | comparison with control group (body weight after 4 weeks) ([1]; 10 mg/kg/day by gavage): −5.4%; body weight after administration for 4 weeks ([1]; 10 mg/kg/day by gavage): 267.2 ± 4.1; comparison with control group (body weight after 4 weeks) ([1]; 20 mg/kg/day by gavage): −6.0%; body weight after administration for 4 weeks ([1]; 20 mg/kg/day by gavage): 265.4 ± 10.8; average RQ of 0 to 3 hours after administration [2]: 0.787 ± 0.019
7 | CC(=O)N[C@@H](C)COC1CCN(c2nc3ccc(OCC(C)C)cc3o2)CC1 [Example 33, N-[(1S)-1-methyl-2-({1-[6-(2-methylpropoxy)-1,3-benzoxazol-2-yl]piperidin-4-yl}oxy)ethyl]acetamide] | 99% | 103 to 105 °C | –
8 | CC(=O)N[C@@H](C)COC1CCN(c2nc3ccc(OCC4CC4)cc3o2)CC1 [Example 1, N-[(1S)-2-({1-[6-(cyclopropylmethoxy)-1,3-benzoxazol-2-yl]piperidin-4-yl}oxy)-1-methylethyl]acetamide] | 97% | 122 to 123 °C | comparison with control group (body weight after 4 weeks) ([1]; 20 mg/kg/day by gavage): −6.1%; body weight after administration for 4 weeks ([1]; 20 mg/kg/day by gavage): 265.1 ± 7.2; average RQ of 0 to 3 hours after administration [2]: 0.795 ± 0.013
9 | CC(=O)NC(C)CO[C@H]1CC[C@H](c2cc3ccc(OCC4CC4)cc3o2)CC1 (stereo partly drawn) [Example 38, N-[2-({trans-4-[6-(cyclopropylmethoxy)-1-benzofuran-2-yl]cyclohexyl}oxy)-1-methylethyl]acetamide] | – | 104 to 105 °C | –
10 | CC(=O)N[C@@H](C)COC1CCN(c2nc3ccc(OCCC4CC4)cc3o2)CC1 [Example 35, N-[(1S)-2-({1-[6-(2-cyclopropylethoxy)-1,3-benzoxazol-2-yl]piperidin-4-yl}oxy)-1-methylethyl]acetamide] | 102% | 99.3 to 99.6 °C | –
11 | CC(=O)N[C@@H](C)CO[C@H]1CC[C@H](n2cc3ccc(OCCC4CC4)cc3n2)CC1 [Example 40, N-[(1S)-2-({trans-4-[6-(2-cyclopropylethoxy)-2H-indazol-2-yl]cyclohexyl}oxy)-1-methylethyl]acetamide] | – | 98 to 99 °C | –
12 | CC(=O)N[C@@H](C)CCC1CCN(c2nc3ccc(OCC4CC4)cc3o2)CC1 [Example 5a, N-[(1S)-(3-{1-[6-(cyclopropylmethoxy)-1,3-benzoxazol-2-yl]piperidin-4-yl}-1-methylpropyl)]acetamide] | 106% | 138.2 to 138.4 °C | –
13 | CC(=O)NC(C)CCC1CCN(c2nc3ccc(OCC4CC4)cc3o2)CC1 (racemic) [Example 5, N-(3-{1-[6-(cyclopropylmethoxy)-1,3-benzoxazol-2-yl]piperidin-4-yl}-1-methylpropyl)acetamide] | 104% | 131 to 132 °C | –
14 | CC(=O)N[C@@H](C)COC1CCN(c2nc3cc(OCC4CCC4)ccc3o2)CC1 [Example 6, N-[(1S)-2-({1-[5-(cyclobutylmethoxy)-1,3-benzoxazol-2-yl]piperidin-4-yl}oxy)-1-methylethyl]acetamide] | 98% | 109 to 110 °C | –
15 | CC(=O)N[C@@H](C)COC1CCN(c2nc3ccc(OCC4CCC4)cc3o2)CC1 [Example 34, N-[(1S)-2-({1-[6-(cyclobutylmethoxy)-1,3-benzoxazol-2-yl]piperidin-4-yl}oxy)-1-methylethyl]acetamide] | 102% | – | –
